Results on 3 molecules are retold here after publication PMC6587524 (Journal of Clinical Pharmacology, 2018).

The format of series [1] is in vivo, healthy female subjects. Set-up: AUC0-t, Central Value, Test / AUC0-t, Central Value, Reference / AUCinf, Central Value, Test / AUCinf, Central Value, Reference: unit not given beside the values. The following applies: for Bioequivalence in the presence and absence of upadacitinib: 90% CIs of Cmax and AUC ratios within 0.8 to 1.25; for Tmax: median (minimum to maximum); for AUC(0-inf): AUCinf; for half-life: t1/2 (terminal half-life), harmonic mean (pseudo-standard deviation).

The subject of another series is JAK1. Particulars: cited from earlier work.
In another series the test system is other JAK isoforms. Particulars: relative to JAK1; cited from earlier work.
Series [2] in a line: Safety assessment during the study. The class given is in vivo, healthy female subjects. Particulars: period 2.
The conditions of series [3]: cited from earlier work.
A further series relates to cytochrome P450 (CYP) 3A. The following applies: coadministration following multiple doses of ketoconazole; cited from earlier work.
Where [4] appears, read: ethinylestradiol/levonorgestrel 0.03/0.15 mg alone, period 1 day 1, N = 22, mean ± SD.
The mark [5] stands for this setting: ethinylestradiol/levonorgestrel 0.03/0.15 mg with upadacitinib 30 mg QD, period 2, N = 20, mean ± SD.
The mark [6] stands for this setting: ethinylestradiol/levonorgestrel 0.03/0.15 mg with upadacitinib 30 mg QD, period 2, N = 20.
[7] abbreviates: period 1, day 1 (oral contraceptive alone), repeated measures analysis.
[8] abbreviates: period 2, day 12 (with upadacitinib 30 mg QD), repeated measures analysis.

Read-outs that look alike come from different tables or passages of the source.

In the case of `CC[C@@H]1CN(C(=O)NCC(F)(F)F)C[C@@H]1c1cnc2cnc3[nH]ccc3n12` [Upadacitinib], in series [1] (upadacitinib 30 mg QD repeated doses), the “effect of upadacitinib on the exposures of ethinylestradiol or levonorgestrel” value is recorded as “no effect”. Further, the JAK1 inhibition entry in the series on JAK1 is reported as “potently inhibits JAK1”. For the same molecule, in the series on other JAK isoforms, the “potency against the other JAK isoforms” value is recorded as “less potent”. Also, the “relation of treatment-emergent adverse events to upadacitinib” value in series [2] is recorded as “not considered to have a reasonable possibility of being related”. Also, in series [3] (extended-release formulation), the “accumulation upon multiple QD dosing” value was “No significant accumulation”. For the same molecule, in series [3] (in vivo), the “administered dose eliminated in urine and feces as unchanged upadacitinib” value is reported as more than 60%. Also, in series [3] (multiple QD dosing, extended-release formulation), the “time to steady state” value is not above 4 days. For the same molecule, in the series on cytochrome P450 (CYP) 3A, the “increase in upadacitinib AUC” value was 75% and the “increase in upadacitinib Cmax” value is given as 70%.
One may read the AUC(0-t) as the area under the concentration-time curve up to a stated or last time point. A word on the Cmax: it is the highest concentration seen after dosing. As to `C#C[C@]1(O)CC[C@H]2[C@@H]3CCC4=CC(=O)CC[C@@H]4[C@H]3CC[C@@]21CC` [Levonorgestrel], the “Bioequivalence in the presence and absence of upadacitinib” value in series [1] was “bioequivalent”. In series [1] (setting [4]), this molecule returned an exposure AUC(0-t) of 43.0 ± 18.4 ng·h/mL, an AUCinf of 51.7 ± 22.0 ng·h/mL and a Cmax of 3.9 ± 1.4 ng/mL. Also, the Tmax in series [1] (ethinylestradiol/levonorgestrel 0.03/0.15 mg alone, period 1 day 1, N = 22) is 0.8 (0.5–2.0) h. In series [1] (setting [5]), this molecule returned an AUC(0-t) of 38.7 ± 12.1 ng·h/mL, an AUCinf of 49.5 ± 20.4 ng·h/mL and a Cmax of 3.7 ± 1.15 ng/mL. Moreover, the Tmax in series [1] (setting [6]) is listed as 0.8 (0.5–2.0) h. Moreover, in series [1] (setting [7]), the “AUC0-t, Central Value, Reference” value was 39.6 and the “AUCinf, Central Value, Reference” value amounted to 47.6. In addition, in series [1] (setting [8]), the “AUC0-t, Central Value, Test” value turned out to be 36.3 and the “AUCinf, Central Value, Test” value was 45.5.
The AUC(0-inf) is total exposure, with the tail of the curve extrapolated. The term half-life denotes the time needed for the level to fall by half in the phase considered. In the case of `C#C[C@]1(O)CC[C@H]2[C@@H]3CCc4cc(O)ccc4[C@H]3CC[C@@]21C` [Ethinylestradiol], the “Bioequivalence in the presence and absence of upadacitinib” value in series [1] is recorded as “bioequivalent”. Moreover, in series [1] (setting [6]), the Tmax is recorded as 1.5 (1.0–3.0) h. The AUC(0-t) is 0.39 ng·h/mL in series [1] (female, human, plasma, po, AUC0-t, Central Value, Test, period 2, day 12 (with upadacitinib 30 mg QD), repeated measures analysis); 0.378 ± 0.154 ng·h/mL in series [1] (female, human, plasma, po, AUC0-t, ethinylestradiol/levonorgestrel 0.03/0.15 mg alone, period 1 day 1, N = 22, mean ± SD); 0.426 ± 0.137 ng·h/mL in series [1] (female, human, plasma, po, AUC0-t, ethinylestradiol/levonorgestrel 0.03/0.15 mg with upadacitinib 30 mg QD, period 2, N = 20, mean ± SD). In addition, the AUC(0-inf) worked out at 0.445 ng·h/mL in series [1] (female, human, plasma, po, Central Value, Test, period 2, day 12 (with upadacitinib 30 mg QD), repeated measures analysis) and 0.441 ± 0.193 ng·h/mL in series [1] (female, human, plasma, po, ethinylestradiol/levonorgestrel 0.03/0.15 mg alone, period 1 day 1, N = 22, mean ± SD). Also, the half-life in series [1] (female, human, plasma, po, ethinylestradiol/levonorgestrel 0.03/0.15 mg alone, period 1 day 1, N = 22) was 7 h; in series [1] (female, human, plasma, po, ethinylestradiol/levonorgestrel 0.03/0.15 mg with upadacitinib 30 mg QD, period 2, N = 20), 7.7 h.
